Results as given in patent publication US11529362B2, “Physiologically balanced injectable formulations of fosnetupitant” (HELSINN HEALTHCARE SA, priority 2016, dated 2022).
Like-named read-outs stand apart in the source and are kept apart here. Blank lines part the entries; values can stand above or below the compound they belong to.

Key:
[1] = p-Netu solubility studies; assay type: physicochemical; conditions: in water at acidic pH values less than 7.0
Excerpt: A study was undertaken to determine the maximum allowable concentration of netupitant in aqueous solutions of p-Netu, above which unacceptable precipitation is observed.

[2] = presence of EDTA, in proportion to its concentration in solution
[3] = Akynzeo prescribing information, cited from earlier work

p-Netu solubility [1]: drops significantly
Compound: Cc1ccccc1-c1cc(N2CC[N+](C)(COP(=O)([O-])O)CC2)ncc1N(C)C(=O)C(C)(C)c1cc(C(F)(F)F)cc(C(F)(F)F)c1 [p-Netu, 4-(5-(2-(3,5-bis(trifluoromethyl)phenyl)-N,2-dimethylpropanamido)-4-(o-tolyl)pyridin-2-yl)-1-methyl-1-((phosphonooxy)methyl) piperazin-1-ium]

Compound: O=C([O-])CN(CCN(CC(=O)[O-])CC(=O)O)CC(=O)O.[Na+].[Na+] [EDTA, Disodium edetate]
conversion of p-Netu to 14-Netu [2]: reduced

Compound: Cc1ccccc1-c1cc(N2CCN(C)CC2)ncc1N(C)C(=O)C(C)(C)c1cc(C(F)(F)F)cc(C(F)(F)F)c1 [netupitant, 2-(3,5-bis(trifluoromethyl)phenyl)-N,2-dimethyl-N-(6-(4-methylpiperazin-1-yl)-4-(o-tolyl)pyridine-3-yl)propanamide]
systemic exposure ([3]; dose increase from 10 mg to 300 mg): greater than dose-proportional increase
systemic exposure ([3]; dose increase from 300 mg to 450 mg): dose-proportional increase
